Results reported in US10604473B2, “Lipids that increase insulin sensitivity and methods of using the same” (Beth Israel Deaconess Medical Center, Inc., priority 2013, dated 2020).
“Also recorded” adds a separate entry of the source.

Key:
[1] = system: 3T3-L1 adipocytes; assay: Glucose transport in 3T3-L1 adipocytes; assay type: cell-based
Description: FIGS. 54A-D show glucose uptake regulation by PAHSAs and Glut4 translocation via GPR120. FIG. 54A is a bar graph showing insulin-stimulated glucose transport in 3T3-L1 adipocytes treated 9-PAHSA (20 μM) or vehicle (DMSO) control for 6 days. n=6 per group, *p<0.05 compared to vehicle by t-test. FIG. 54B is a bar graph showing insulin (10 nM)-stimulated glucose transport in 3T3-L1 adipocytes transfected with control siRNA or GPR120 siRNA and treated 5-PAHSA (10 μM), 9-PAHSA (10 μM) or vehicle (DMSO) control for 2 days. n=3 per group, *p<0.05 compared to DMSO+control siRNA or GPR120 siRNA alone, $p<0.05 compared to control siRNA or GPR120 siRNA+insulin and GPR120 siRNA+insulin+PAHSA by t-test. FIG. 54C is a panel showing Glut4 plasma membrane translocation in 3T3-L1 adipocytes transfected with control siRNA or GPR120 siRNA and treated with 9-PAHSA in the presence or absence of insulin. 6 separate experiments were carried out without RNAi and 3 experiments with RNAi; each experiment had greater than 50 cells per experimental condition. FIG. 54D is a bar graph showing quantification of Glut4 translocation in panel C. *p<0.05 compared to control siRNA+insulin and GPR120 siRNA+insulin+9-PAHSA by t-test. All data are presented as mean±s.e.m. See also FIG. 57.
For all cell culture experiments, FAHFAs were solubilized in DMSO at a concentration of 20 mM and further diluted in assay buffer or cell culture media to the working concentrations indicated for each assay. In all instances an equivalent volume of vehicle (DMSO) was added to control treatment groups.

[2] = system: STC-1 cells; assay: GLP-1 secretion from STC-1 enteroendocrine cells (ELISA); assay type: cell-based
Description: For the experiments summarized in FIG. 41 STC-1 cells were incubated with vehicle (DMSO), 9-PAHSA, 5-PAHSA or 9-OAHSA at the indicated concentrations or lineolic acid (100 uM) as a positive control. Media was harvested and GLP-1 was measured by ELISA.
For the experiments summarized in FIG. 42, the same protocol as described for FIG. 41 was used, except in this experiment a time course was performed. For both FIG. 41 and FIG. 42, for GLP-1 secretion STC1 cells were washed 3× with serum free culture media followed by stimulation with FAHFAs or vehicle at the indicated concentrations and timepoints. Levels of active GLP-1 were measured by ELISA.

[3] = biological target: T1, GPR120 (Homo sapiens, UniProt Q5NUL3); assay: PathHunter beta-Arrestin GPCR assay; assay type: cell-based
T1 construct: beta-galactosidase enzyme fragment (ProLink)
T1 sequence (Q5NUL3 1-377 isoform Q5NUL3-1): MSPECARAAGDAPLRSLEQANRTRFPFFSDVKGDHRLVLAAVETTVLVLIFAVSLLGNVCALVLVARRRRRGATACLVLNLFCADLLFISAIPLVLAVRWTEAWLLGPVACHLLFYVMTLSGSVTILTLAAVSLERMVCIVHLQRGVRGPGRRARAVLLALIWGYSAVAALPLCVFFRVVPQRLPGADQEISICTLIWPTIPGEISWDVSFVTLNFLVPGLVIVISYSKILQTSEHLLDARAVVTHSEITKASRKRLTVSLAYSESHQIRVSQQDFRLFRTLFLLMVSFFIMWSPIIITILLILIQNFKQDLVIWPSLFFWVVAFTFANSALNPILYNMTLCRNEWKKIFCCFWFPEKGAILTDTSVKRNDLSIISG
From the text: FIGS. 57A and 57B are graphs showing GPR120 activation by 9-PAHSA and GPR120 knockdown in 3T3-L1 adipocytes. Specifically, FIG. 57A depicts a GPR120 activity assay using the PathHunter® eXpress GPR120L β-Arrestin GPCR Assay (DiscoverX). n=3 wells per condition. FIG. 57B is a bar graph showing validation of GPR120 knockdown in differentiated 3T3-L1 adipocytes. 3T3-L1 adipocytes (Day 8 post differentiation) were transfected with non-targeting (control) siRNA or three individual GPR120 targeting siRNA's individually or in combination. 48 h post-transfection GPR120 mRNA levels were measured by qPCR and normalized to TBP mRNA levels. n=3 wells per condition.
For the experiments summarized in FIGS. 43-45, the fragment based GPCR assay from DiscoveRx (PATHHUNTER® β-Arrestin assay) was used to as per manufacturer's instructions to determine activation of specific GPCRs as indicated in FIGS. 43-45.

[4] = system: insulin-resistant high-fat fed mice; assay: Oral glucose tolerance test in HFD-fed mice; assay type: in vivo, mouse; conditions: for basal glycemia: 30 minutes after oral administration; for area under the glucose excursion curve / glucose tolerance: OGTT, gavage 30 min prior
Description: Area under the curve (AUC), *p<0.05 compared to vehicle. […] Area above the curve (AAC). *p<0.05 compared to vehicle. […] Area under the curve (AUC). *p<0.05 compared to vehicle. FIG. 53D is a bar graph showing serum insulin levels 5 min post glucose challenge in chow-fed mice gavaged with 5-PAHSA or vehicle (glucose values shown in FIG. 53C). n=12-14 per group, *p<0.05 compared to vehicle by t-test. FIG. 53E is a bar graph showing serum GLP-1 levels 5 min post glucose challenge from chow-fed mice gavaged with 5-PAHSA or vehicle (glucose levels in FIG. 53C). n=12-14 per group, *p<0.05 compared to vehicle by t-test. FIG. 53F are bar graphs showing insulin secretion from primary human islets from two independent donors. Islets were incubated with low (2.5 mM) or high (20 mM) glucose ex vivo in the presence of 5-PAHSA (20 μM) or vehicle control. n=100 islets per condition, *p<0.05 compared to control 2.5 mM glucose, ^#p<0.05 compared to respective treatments at 2.5 mM glucose, ^$p<0.05 compared to control or diluents at 20 mM glucose by t-test. FIG. 53G are bar graphs showing active GLP-1 secretion from STC-1 cells in response to 5-PAHSA (5-P), 9-PAHSA (9P), […] (LA), GW9508 (GW) or vehicle control (DMSO). n=4 per group, *p<0.05 compared to vehicle by t-test. All data are mean±s.e.m. See also FIG. 56.

SMILES	insulin-stimulated glucose transport [1]	GLP-1 secretion [2]	GPR120 activation [3]	basal glycemia [4]	area under the glucose excursion curve [4]	glucose tolerance [4]	glucose transport ([1]; basal state)	time course for GLP-1 secretion [2]
CCCCCCCCCCCCCCCC(=O)OC(CCCCCCCCCCCCC)CCCC(=O)O (stereo not shown) [5-PAHSA]	enhanced insulin-induced glucose transport	rapidly stimulated GLP-1 secretion; also recorded: induce GLP-1 secretion	dose-dependently activated GPR120; also recorded: activate GPR120	lowered basal glycemia	reduced area under the glucose excursion curve	improved glucose tolerance		
CCCCCCCCCCCCCCCC(=O)OC(CCCCCCCCC)CCCCCCCC(=O)O (stereo not shown) [9-PAHSA, palmitoyl-9-hydroxystearic acid]		rapidly stimulated GLP-1 secretion; also recorded: induce GLP-1 secretion	dose-dependently activated GPR120; also recorded: is a ligand for the GPCR, GPR120; also recorded: activate GPR120	lowered basal glycemia	reduced area under the glucose excursion curve	improved glucose tolerance	modestly increased glucose transport	very rapid and sustained
